Activity calls are given as the source filed them. The rule behind the calls is not given here.
molecular target: Alpha-synuclein (Homo sapiens) (UniProt P37840); experiment: Inhibition of alpha alpha-synuclein (unknown origin) fibril aggregation assessed as reduction in TH-T fluorescent signal at 100 uM measured after 5 to 40 hrs by ThT fluorescence assay relative to control; conditions: time 5-40 hrs

SMILES	inhibition
O=[N+]([O-])c1cc(C(F)(F)F)cc([N+](=O)[O-])c1F	57%
O=[N+]([O-])c1cc(C(F)(F)F)cc([N+](=O)[O-])c1Nc1cccc(O)c1	68%

molecular target: Alpha-synuclein (Homo sapiens) (UniProt P37840); experiment: Inhibition of alpha alpha-synuclein (unknown origin) fibril aggregation assessed as reduction in TH-T fluorescent signal at 100 uM measured after 5 to 40 hrs by ThT fluorescence assay; conditions: time 5-40 hrs

inhibition	SMILES
inactive	Cn1nnnc1SCc1ccc(C(F)(F)F)cc1
inactive	Cc1cccc(N2CCC(Nc3c([N+](=O)[O-])cc(C(F)(F)F)cc3[N+](=O)[O-])=N2)c1
inactive	O=C(O)CSCc1ccc(C(F)(F)F)cc1
inactive	O=[N+]([O-])c1cc(C(F)(F)F)cc([N+](=O)[O-])c1Nc1ccc(F)cc1
Active	Cn1nnnc1Sc1c([N+](=O)[O-])cc(C(F)(F)F)cc1[N+](=O)[O-]
inactive	Cc1cc(C)nc(Sc2c([N+](=O)[O-])cc(C(F)(F)F)cc2[N+](=O)[O-])n1
inactive	Cc1cc(C)c(Nc2c([N+](=O)[O-])cc(C(F)(F)F)cc2[N+](=O)[O-])c(C)c1
inactive	O=C(COc1ccccc1)Nc1c([N+](=O)[O-])cc(C(F)(F)F)cc1[N+](=O)[O-]
inactive	O=[N+]([O-])c1cc(C(F)(F)F)cc([N+](=O)[O-])c1N1CCN(c2ncnc3ccccc23)CC1
inactive	Cn1nnnc1SCc1ccccc1[N+](=O)[O-]
inactive	O=[N+]([O-])c1cc(C(F)(F)F)cc([N+](=O)[O-])c1NC1=NN(c2ccccc2)CC1
inactive	Cn1cnnc1SCc1ccc(C(F)(F)F)cc1
inactive	O=[N+]([O-])c1cc(C(F)(F)F)cc([N+](=O)[O-])c1Sc1c(Cl)c(Cl)nc(Cl)c1Cl
inactive	O=[N+]([O-])c1cc(C(F)(F)F)cc([N+](=O)[O-])c1NCCCO
inactive	COc1cccc(Nc2c([N+](=O)[O-])cc(C(F)(F)F)cc2[N+](=O)[O-])c1
inactive	O=[N+]([O-])c1cc([N+](=O)[O-])c(Nc2ccccc2)c(C(F)(F)F)c1
Active	N#Cc1c(C(F)(F)F)c([N+](=O)[O-])c(-c2cccc([N+](=O)[O-])c2)[nH]c1=O
inactive	O=[N+]([O-])c1cc(C(F)(F)F)cc([N+](=O)[O-])c1N1CCN(CCO)CC1
